From article PMC9887599, “Synthesis, Optical Properties, and Antiproliferative Evaluation of NBD-Triterpene Fluorescent Probes” (Journal of Natural Products, 2022)

How the values were obtained:
B16-F10 murine melanoma = assay: MTT cell-viability assay, B16-F10; format: cell-based; details: Mus musculus, 72 h, untreated control cells as 100% viability
Experimental: (§1) The cytotoxic effects of 12 NBD-Aa-triterpene conjugates (1–12) were tested on three different cancer cell lines as a representation of cancers from different tissues and organs (B16-F10 murine melanoma, HT-29 human colon adenocarcinoma, and HepG2 human hepatocyte carcinoma). Cell viability was determined by MTT colorimetric analysis, with increasing concentration levels of each compound (0–200 μg/mL) and incubation for 72 h. The MTT assay was based on the metabolic reduction of 3-(4,5-dimethylthiazol-2-yl)-2,5-diphenyltetrazolium bromide (MTT) to a violet-colored compound (formazan), with a maximum absorbance at 570 nm. Cell viability was proportional to the amount of formazan and was expressed as the percentage of viable treated cells relative to untreated control cells. The concentration at which the derivatives halved the number of viable cells in the three cancer lines (IC50) was determined. […] These NBD conjugates of BO or BM also had higher IC50 values than their precursors (BO or BM), even in NBD conjugates with the shortest-chain ω-amino acid linker (6AHA) (Table 2). Due to these high IC50 values, all of these NBD-conjugated compounds were discarded for further cytometric studies.
(§2) The effect of the synthesized compounds on the viability of tumor cells was assessed using the MTT assay, based on the ability of living cells to metabolically reduce 3-(4,5-dimethylthiazole)-2,5-diphenyltetrazole bromide, rendering formazan, a colored compound with a maximum absorbance of 570 nm. To study the cytotoxic effects of the compounds in the three cancer cell lines, the different lines were seeded in 96-well plates at a cell density per well of 5 × 10^3 for B16-F10, 6 × 10^3 for HT-29, and 15 × 10^3 for HepG2. After seeding, the plates were grown for 24 h and subsequently treated in triplicate with different compounds at different concentrations (0–200 μg/mL) for 72 h. After this time, the cells were stained by adding […] of MTT (0.5 mg/mL) per well and incubated for 1 h. Subsequently, the cells were washed with phosphate-buffered saline (PBS), and formazan was resuspended in 100 μL of DMSO per well. Cell viability was measured by absorbance at 550 nm in an ELISA plate reader (Tecan Sunrise MR20–301, TECAN, Austria).
(§3) For this, Sigmaplot 12.5 software was used, and all quantitative data were expressed as means ± standard deviation (SD). All data shown are representative of at least two independent experiments performed in triplicate.

[1] = system: HT-29 human colon adenocarcinoma; assay: MTT cell-viability assay, HT-29; format: cell-based; details: 72 h, untreated control cells as 100% viability
Experimental: as §1, §2, §3

[2] = system: HepG2 human hepatocyte carcinoma; assay: MTT cell-viability assay, HepG2; format: cell-based; details: 72 h, untreated control cells as 100% viability
Experimental: as §1, §2, §3

[3] = system: B16-F10, HT-29, and HepG2; assay: MTT cell-viability assay, summary over the three cancer cell lines; format: cell-based, mouse, human; details: 72 h, stated as holding in most cases, read-out: IC50 concentrations over the three cancer cell lines, in most cases
Experimental: as §1, §2, §3

[4] = Absorption and fluorescence spectroscopy (photophysical data); format: physicochemical; details: DMSO, 25 °C; for τ (half-life time of fluorescence): 485 nm pulsed LED; for Φ (fluorescence quantum yield): Coumarin 6 as standard; for (λem)max: excitation at 480 nm

IC50 (B16-F10 murine melanoma) [µM] | IC50 [1] [µM] | IC50 [3] [µM] | (λabs)max [4] [nm] | ε (molar extinction coefficient) [4] [M^–1 cm^–1] | τ (half-life time of fluorescence) [4] [ns] | Φ (fluorescence quantum yield) [4] | (λem)max [4] [nm] | Structure (SMILES) | IC50 [2] [µM]
19 ± 0.2 | 15.3 ± 0.5 |  |  |  |  |  |  | CC1(C)CC[C@]2(C(=O)OCc3ccccc3)CC[C@]3(C)C(=CC[C@@H]4[C@@]5(C)C[C@@H](O)[C@H](O)C(C)(C)[C@@H]5CC[C@]43C)[C@@H]2C1 [BM, 28-benzyl maslinate, reference compound] | 17
52.2 ± 0.9 | 67.1 ± 3.2 |  |  |  |  |  |  | CC1(C)CC[C@]2(C(=O)OCc3ccccc3)CC[C@]3(C)C(=CC[C@@H]4[C@@]5(C)CC[C@H](O)C(C)(C)[C@@H]5CC[C@]43C)[C@@H]2C1 [BO, 28-benzyl oleanolate, reference compound] | 38.7 ± 1.7
76.6 ± 3.7 | 63.3 ± 2.4 | > 80 | 480 | 4035 | 7.761 | 0.67 | 545 | CC1(C)CC[C@]2(C(=O)OCc3ccccc3)CC[C@]3(C)C(=CC[C@@H]4[C@@]5(C)CC[C@H](OC(=O)CCCCCNc6ccc([N+](=O)[O-])c7nonc67)C(C)(C)[C@@H]5CC[C@]43C)[C@@H]2C1 [Compound 3, Benzyl 3β-((6-((7-Nitrobenzo[C][1,2,5]oxadiazol-4-yl)amino)hexanoyl)oxy)olean-12-en-28-oate] | 74.3 ± 0.7
96.4 ± 0.9 | 121 ± 4 | > 80 | 480 | 1338 | 7.650 | 0.72 | 545 | CC1(C)CC[C@]2(C(=O)OCc3ccccc3)CC[C@]3(C)C(=CC[C@@H]4[C@@]5(C)C[C@@H](OC(=O)CCCCCNc6ccc([N+](=O)[O-])c7nonc67)[C@H](O)C(C)(C)[C@@H]5CC[C@]43C)[C@@H]2C1 [Compound 4, Benzyl 3β-Hydroxy-2α-((6-((7-nitrobenzo[c][1,2,5]oxadiazol-4-yl)amino)hexanoyl)oxy)olean-12-en-28-oate] | 91.2 ± 2.3
137 ± 2 | 105 ± 1.2 | > 50 | 480 | 1144 | 7.654 | 0.73 | 545 | CC1(C)CC[C@]2(C(=O)O)CC[C@]3(C)C(=CC[C@@H]4[C@@]5(C)CC[C@H](OC(=O)CCCCCCCNc6ccc([N+](=O)[O-])c7nonc67)C(C)(C)[C@@H]5CC[C@]43C)[C@@H]2C1 [Compound 5, 3β-((8-((7-Nitrobenzo[c][1,2,5]oxadiazol-4-yl)amino)octanoyl)oxy)olean-12-en-28-oic Acid] | 95.7 ± 3.4
39.5 ± 0.8 | 45.2 ± 0.9 | > 50 | 481 | 1986 | 7.621 | 0.55 | 546 | CC1(C)CC[C@]2(C(=O)O)CC[C@]3(C)C(=CC[C@@H]4[C@@]5(C)C[C@@H](OC(=O)CCCCCCCNc6ccc([N+](=O)[O-])c7nonc67)[C@H](O)C(C)(C)[C@@H]5CC[C@]43C)[C@@H]2C1 [Compound 6, 3β-Hydroxy-2α-((8-((7-nitrobenzo[c][1,2,5]oxadiazol-4-yl)amino)octanoyl)oxy)olean-12-en-28-oic Acid] | 98.5 ± 0.8
74.2 ± 2.2 | 95.9 ± 2.2 | > 80 | 480 | 2645 | 7.724 | 0.71 | 547 | CC1(C)CC[C@]2(C(=O)OCc3ccccc3)CC[C@]3(C)C(=CC[C@@H]4[C@@]5(C)CC[C@H](OC(=O)CCCCCCCNc6ccc([N+](=O)[O-])c7nonc67)C(C)(C)[C@@H]5CC[C@]43C)[C@@H]2C1 [Compound 7, Benzyl 3β-((8-((7-Nitrobenzo[c][1,2,5]oxadiazol-4-yl)amino)octanoyl)oxy)olean-12-en-28-oate] | 71.6 ± 1.7
96.8 ± 1.8 | 123 ± 1.7 | > 80 | 481 | 3358 | 7.639 | 0.59 | 548 | CC1(C)CC[C@]2(C(=O)OCc3ccccc3)CC[C@]3(C)C(=CC[C@@H]4[C@@]5(C)C[C@@H](OC(=O)CCCCCCCNc6ccc([N+](=O)[O-])c7nonc67)[C@H](O)C(C)(C)[C@@H]5CC[C@]43C)[C@@H]2C1 [Compound 8, Benzyl 3β-Hydroxy-2α-((8-((7-nitrobenzo[c][1,2,5]oxadiazol-4-yl)amino)octanoyl)oxy)olean-12-en-28-oate] | 95.3 ± 0.7
101.1 ± 0.9 | 113 ± 4.4 | > 50 | 481 | 1015 | 7.635 | 0.71 | 546 | CC1(C)CC[C@]2(C(=O)O)CC[C@]3(C)C(=CC[C@@H]4[C@@]5(C)CC[C@H](OC(=O)CCCCCCCCCCNc6ccc([N+](=O)[O-])c7nonc67)C(C)(C)[C@@H]5CC[C@]43C)[C@@H]2C1 [Compound 9, 3β-((11-((7-Nitrobenzo[c][1,2,5]oxadiazol-4-yl)amino)undecanoyl)oxy)olean-12-en-28-oic Acid] | 84.5 ± 0.4
107.7 ± 0.4 | 110 ± 5.2 | > 50 | 481 | 1199 | 7.153 | 0.45 | 546 | CC1(C)CC[C@]2(C(=O)O)CC[C@]3(C)C(=CC[C@@H]4[C@@]5(C)C[C@@H](OC(=O)CCCCCCCCCCNc6ccc([N+](=O)[O-])c7nonc67)[C@H](O)C(C)(C)[C@@H]5CC[C@]43C)[C@@H]2C1 [Compound 10, 3β-Hydroxy-2α-((11-((7-nitrobenzo[c][1,2,5]oxadiazol-4-yl)amino)undecanoyl)oxy)olean-12-en-28-oic Acid] | 122.8 ± 0.9
92.3 ± 1.5 | 101 ± 1.1 | > 80 | 480 | 2718 | 7.645 | 0.49 | 546 | CC1(C)CC[C@]2(C(=O)OCc3ccccc3)CC[C@]3(C)C(=CC[C@@H]4[C@@]5(C)CC[C@H](OC(=O)CCCCCCCCCCNc6ccc([N+](=O)[O-])c7nonc67)C(C)(C)[C@@H]5CC[C@]43C)[C@@H]2C1 [Compound 11] | 82.7 ± 2.5
80.8 ± 0.9 | 108 ± 3.8 | > 80 | 480 | 2710 | 7.633 | 0.46 | 546 | CC1(C)CC[C@]2(C(=O)OCc3ccccc3)CC[C@]3(C)C(=CC[C@@H]4[C@@]5(C)C[C@@H](OC(=O)CCCCCCCCCCNc6ccc([N+](=O)[O-])c7nonc67)[C@H](O)C(C)(C)[C@@H]5CC[C@]43C)[C@@H]2C1 [Compound 12] | 80.9 ± 1.1
106 ± 3.7 | 429.9 ± 0.7 |  |  |  |  |  |  | CC1(C)CC[C@]2(C(=O)O)CC[C@]3(C)C(=CC[C@@H]4[C@@]5(C)CC[C@H](O)C(C)(C)[C@@H]5CC[C@]43C)[C@@H]2C1 [OA, 3β-hydroxyolean-12-en-28-oic acid, reference compound] | 211.8 ± 0.5

Structure (SMILES) | IC50 (B16-F10 murine melanoma) [µM] | IC50 [1] [µM] | IC50 [3] [µM] | (λabs)max [4] [nm] | ε (molar extinction coefficient) [4] [M^–1 cm^–1] | τ (half-life time of fluorescence) [4] [ns] | Φ (fluorescence quantum yield) [4] | (λem)max [4] [nm] | IC50 [2] [µM]
CC1(C)CC[C@]2(C(=O)O)CC[C@]3(C)C(=CC[C@@H]4[C@@]5(C)C[C@@H](O)[C@H](O)C(C)(C)[C@@H]5CC[C@]43C)[C@@H]2C1 [MA, 2α,3β-dihydroxyolean-12-en-28-oic acid, reference compound] | 36.2 ± 2.5 | 32.2 ± 3.8 |  |  |  |  |  |  | 99.2 ± 5.5
